How the values were obtained:
[1] = target: T1, human prostaglandin E2 receptor EP1 subtype (Homo sapiens, UniProt P34995); experiment: Calcium flux of human prostaglandin E2 receptor EP1 subtype; format: cell-based; settings: CHO-K1-Gα16 cells overexpressing human EP1, activated by prostaglandin E2; read-out: hEP1 Ca^2+ IC50
T1 construct: expressed in transfected cells; host or cells: CHO-K1-Gα16
T1 sequence (P34995 1-402): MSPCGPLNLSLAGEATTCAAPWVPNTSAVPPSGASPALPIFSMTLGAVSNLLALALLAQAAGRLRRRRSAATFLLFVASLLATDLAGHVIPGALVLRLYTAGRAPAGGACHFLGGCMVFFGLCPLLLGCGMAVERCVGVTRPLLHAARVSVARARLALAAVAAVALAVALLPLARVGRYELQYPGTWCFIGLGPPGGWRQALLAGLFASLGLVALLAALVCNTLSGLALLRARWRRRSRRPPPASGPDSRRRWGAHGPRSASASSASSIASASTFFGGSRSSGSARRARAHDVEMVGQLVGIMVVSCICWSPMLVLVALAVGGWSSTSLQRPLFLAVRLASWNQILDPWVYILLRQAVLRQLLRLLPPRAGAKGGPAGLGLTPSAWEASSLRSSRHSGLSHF
Protocol: (§1) CHO-K1-Gα16 cells at the logarithmic growth phase were transfected with human prostaglandin E2 Receptor subtypes EP1, EP2 or EP3 overexpressing vector by Lipofectamine 2000, then seeded in a 96-well plate (Falcon, CA) at a density of 20000 cells per 100 μL culture medium for overnight culture. On the second day, every single well were added with 100 μL calcium 5 detection reagents (Molecular Devices) and incubated in incubator at 37° C., 5% CO2 for 45 minutes. The compounds were diluted with HBSS detection buffer, then were added to 96-well plates. After 20 min incubation at room temperature in the dark, prostaglandin E2 at certain concentration was used to activate calcium flux of cells for detection (Flexstation 3, MD, CA).
(§2) Calculate the IC50 of the compounds of the invention in inhibiting the calcium flux of human EP1, EP2, and EP3 receptor (i.e. the concentration of drugs at which the intracellular Ca^2+ flux being inhibited by half after overexpressing human EP1, EP2, and EP3 receptors in CHO-K1-Gα16 cells). The IC50 of the drugs were calculated using GraphPad Prism 5.

[2] = Cytotoxicity evaluation (CCK8), MOSJ; settings: mouse, MOSJ osteosarcoma cells
Protocol: (§5) Cells with a density of 2000-8000 cells per 100 μL medium were seeded in 96-well plates (Falcon, CA) and incubated for 24 hours, then treated with drugs having different concentration gradient (at least 4 replicates per concentration) and incubated at 37° C. in 5% CO2 incubator for 72 hours. Then cell viability was detected by CCK8 method. That is to say, add 10 μL CCK8 to each well and incubate for 0.33-2 h, and the OD values are read by microplate reader at 450 nm. The inhibition rate on cell survival of compounds with each concentration were calculated.
(§6) Inhibition rate on cell survival=(OD value of groups with each concentration/OD
(§7) value of control group)×100%±standard deviation.
(§8) The IC50 of drugs were calculated using GraphPad Prism 5.0.

[3] = Cytotoxicity evaluation (CCK8), EMT-6; settings: mouse, EMT-6 breast cancer cells
Protocol: as §5, §6, §7, §8

[4] = Cytotoxicity evaluation (CCK8), LLC; settings: mouse, LLC lung cancer cells
Protocol: as §5, §6, §7, §8

[5] = Cytotoxicity evaluation (CCK8), PANC02; settings: mouse, PANC02 pancreatic cancer cells
Protocol: as §5, §6, §7, §8

[6] = Cytotoxicity evaluation (CCK8), 293; settings: human
[7] = target: T2, human prostaglandin E2 receptor EP3 subtype (Homo sapiens, UniProt P43115); experiment: Calcium flux of human prostaglandin E2 receptor EP3 subtype; format: cell-based; settings: CHO-K1-Gα16 cells overexpressing human EP3, activated by prostaglandin E2; read-out: hEP3 Ca^2+ IC50
T2 construct: expressed in transfected cells; host or cells: CHO-K1-Gα16
T2 sequence (P43115 1-390): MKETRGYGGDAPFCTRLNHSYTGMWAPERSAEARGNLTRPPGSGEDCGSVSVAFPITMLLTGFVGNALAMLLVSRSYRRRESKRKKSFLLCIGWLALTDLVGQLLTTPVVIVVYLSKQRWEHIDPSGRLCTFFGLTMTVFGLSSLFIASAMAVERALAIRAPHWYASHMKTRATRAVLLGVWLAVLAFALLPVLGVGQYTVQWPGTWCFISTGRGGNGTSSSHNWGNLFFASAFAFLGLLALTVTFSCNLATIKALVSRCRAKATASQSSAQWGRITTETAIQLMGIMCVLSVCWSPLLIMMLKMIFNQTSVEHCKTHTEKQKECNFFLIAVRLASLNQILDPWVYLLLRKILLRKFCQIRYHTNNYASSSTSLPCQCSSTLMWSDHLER
Protocol: as §1, §2

[8] = target: T3, mouse PGE2 receptor EP4 subtype (mEP4) (Mus musculus, UniProt P32240); experiment: Calcium flux of mouse prostaglandin E2 receptor EP4 subtype; format: cell-based; settings: CHO-K1-Gα16 cells overexpressing mEP4, calcium flux activated by prostaglandin E2; read-out: mEP4 Ca^2+ IC50
T3 construct: expressed in transfected cells; host or cells: CHO-K1-Gα16
Protocol: (§3) CHO-K1-Gα16 cells at the logarithmic growth phase were transfected with EP4 overexpressing vector by Lipofectamine 2000 and then seeded in a 96-well plate (Falcon, CA) and cultured at 20000 cells per 100 μL culture medium overnight. On the second day, every single well were added with 100 μL calcium 5 detection reagents (Molecular Devices) and incubated in incubator at 37° C., 5% CO2 for 45 minutes. The compounds were diluted in HBSS detection buffer, then added to 96-well plates. After incubated for 20 min at room temperature away from light, certain concentration of prostaglandin E2 was used to activate calcium flux of cells for detection (Flexstation 3, MD, CA).
(§4) Calculate the IC50 of the compounds of the invention in inhibiting the calcium flux of human PGE2 receptor EP4 subtype (hEP4) and mouse PGE2 receptor EP4 subtype (mEP4) (i.e. the concentration of drugs at which the intracellular Ca^2+ flux is inhibited by half after overexpressing hEP4 and mEP4 receptors in CHO-K1-Gα16 cells). The IC50 of the drugs were calculated using GraphPad Prism 5.

[9] = Cytotoxicity evaluation (CCK8), CT26; settings: mouse, CT26 intestinal cancer cells
Protocol: as §5, §6, §7, §8

[10] = target: T4, human prostaglandin E2 receptor EP2 subtype (Homo sapiens, UniProt P43116); experiment: Calcium flux of human prostaglandin E2 receptor EP2 subtype; format: cell-based; settings: CHO-K1-Gα16 cells overexpressing human EP2, activated by prostaglandin E2; read-out: hEP2 Ca^2+ IC50
T4 construct: expressed in transfected cells; host or cells: CHO-K1-Gα16
Protocol: as §1, §2

[11] = target: T5, human PGE2 receptor EP4 subtype (hEP4) (Homo sapiens, UniProt P35408); experiment: Calcium flux of human prostaglandin E2 receptor EP4 subtype; format: cell-based; settings: CHO-K1-Gα16 cells overexpressing hEP4, calcium flux activated by prostaglandin E2; read-out: hEP4 Ca^2+ IC50
T5 construct: expressed in transfected cells; host or cells: CHO-K1-Gα16
Protocol: as §3, §4

T5 sequence (P35408 whole entry): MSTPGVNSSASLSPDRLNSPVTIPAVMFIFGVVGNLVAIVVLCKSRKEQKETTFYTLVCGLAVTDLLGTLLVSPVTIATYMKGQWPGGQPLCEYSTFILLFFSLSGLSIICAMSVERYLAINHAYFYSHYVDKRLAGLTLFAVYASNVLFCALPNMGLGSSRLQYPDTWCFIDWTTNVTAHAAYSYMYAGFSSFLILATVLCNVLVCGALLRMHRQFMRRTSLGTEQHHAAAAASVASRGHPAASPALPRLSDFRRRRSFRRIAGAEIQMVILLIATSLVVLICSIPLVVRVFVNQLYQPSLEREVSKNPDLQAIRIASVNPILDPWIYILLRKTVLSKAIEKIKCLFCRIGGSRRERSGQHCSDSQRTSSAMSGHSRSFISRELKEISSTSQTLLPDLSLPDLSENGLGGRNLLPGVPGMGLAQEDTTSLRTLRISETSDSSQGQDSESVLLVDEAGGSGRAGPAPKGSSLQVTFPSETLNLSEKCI
T4 sequence (P43116 whole entry): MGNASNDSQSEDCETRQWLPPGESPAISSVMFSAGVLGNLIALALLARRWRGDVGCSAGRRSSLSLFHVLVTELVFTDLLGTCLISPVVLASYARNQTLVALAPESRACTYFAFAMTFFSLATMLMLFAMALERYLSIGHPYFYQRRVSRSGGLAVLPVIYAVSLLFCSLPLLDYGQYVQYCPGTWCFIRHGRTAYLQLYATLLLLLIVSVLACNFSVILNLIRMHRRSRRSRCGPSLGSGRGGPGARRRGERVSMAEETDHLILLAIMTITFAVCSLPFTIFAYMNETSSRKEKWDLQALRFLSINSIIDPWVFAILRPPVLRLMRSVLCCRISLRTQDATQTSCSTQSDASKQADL
T3 sequence (P32240 whole entry): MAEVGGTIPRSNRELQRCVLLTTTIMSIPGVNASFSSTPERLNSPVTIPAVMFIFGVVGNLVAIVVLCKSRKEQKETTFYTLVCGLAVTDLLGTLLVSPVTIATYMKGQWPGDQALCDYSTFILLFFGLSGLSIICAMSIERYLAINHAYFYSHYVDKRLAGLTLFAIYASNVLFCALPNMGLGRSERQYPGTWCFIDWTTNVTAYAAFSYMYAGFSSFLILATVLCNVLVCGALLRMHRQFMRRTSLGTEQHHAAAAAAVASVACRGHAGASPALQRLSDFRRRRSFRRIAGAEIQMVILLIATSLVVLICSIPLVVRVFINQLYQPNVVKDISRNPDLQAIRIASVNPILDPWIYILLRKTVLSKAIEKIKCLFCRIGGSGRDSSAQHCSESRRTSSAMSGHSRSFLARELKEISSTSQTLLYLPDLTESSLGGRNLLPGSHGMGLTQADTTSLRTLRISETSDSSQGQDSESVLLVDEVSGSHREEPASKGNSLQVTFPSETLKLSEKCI

Structure (SMILES)	IC50 [1]	IC50 [7]	IC50 [8]	IC50 [10]	IC50 [11]	IC50 at 72 h [2]	IC50 at 72 h [3]	IC50 at 72 h [4]	IC50 at 72 h [5]	IC50 at 72 h [6]	IC50 at 72 h [9]
C[C@H](NC(=O)c1c(C#Cc2ccc(F)cc2)sc2c1CCC2)c1ccc(C(=O)O)cc1 [YJ102, (S)-4-(1-(2-((4-fluorophenyl)ethynyl)-5,6-dihydro-4H-cyclopenta[b]thiophene-3-carboxamido)ethyl)benzoic Acid]	–	–	< 0.1 µM	–	< 0.1 µM	–	–	–	–	–	–
C[C@H](NC(=O)c1c(C#Cc2ccc(F)cc2)sc2c1CCCCC2)c1ccc(C(=O)O)cc1 [YJ104, (S)-4-(1-(2-((4-fluorophenyl)ethynyl)-5,6,7,8-tetrahydro-4H-cyclohepta[b]thiophene-3-carboxamido)ethyl)benzoic Acid]	> 10 µM	> 10 µM	0.1 to 1 µM	> 10 µM	< 0.1 µM	> 100 µM	> 100 µM	> 100 µM	> 100 µM	> 100 µM	> 100 µM
C[C@H](NC(=O)c1c(CCc2ccc(F)cc2)sc2c1CCC2)c1ccc(C(=O)O)cc1 [YJ109, (S)-4-(1-(2-(4-fluorophenethyl)-5,6-dihydro-4H-cyclopenta[b]thiophene-3-carboxamido)ethyl)benzoic Acid]	–	–	< 0.1 µM	–	–	> 100 µM	> 100 µM	> 100 µM	> 100 µM	> 100 µM	> 100 µM
C[C@H](NC(=O)c1c(CCc2ccc(C(F)(F)F)cc2)sc2c1CCOC2)c1ccc(C(=O)O)cc1 [YJ111, (S)-4-(1-(2-(4-(trifluoromethyl)phenethyl)-5,7-dihydro-4H-thieno[2,3-c]pyran-3-carboxamido)ethyl)benzoic Acid]	–	–	< 0.1 µM	–	< 0.1 µM	–	–	–	–	–	–
C[C@H](NC(=O)c1c(CCc2cccc(C(F)(F)F)c2)sc2c1CCOC2)c1ccc(C(=O)O)cc1 [YJ112, (S)-4-(1-(2-(3-(trifluoromethyl)phenethyl)-5,7-dihydro-4H-thieno[2,3-c]pyran-3-carboxamido)ethyl)benzoic Acid]	> 10 µM	> 10 µM	0.1 to 1 µM	> 10 µM	< 0.1 µM	> 100 µM	> 100 µM	> 100 µM	> 100 µM	> 100 µM	> 100 µM
COc1ccc(CCc2sc3c(c2C(=O)N[C@@H](C)c2ccc(C(=O)O)cc2)CCOC3)cc1 [YJ122, (S)-4-(1-(2-(4-methoxyphenethyl)-4,7-dihydro-5H-thieno[2,3-c]pyran-3-carboxamido)ethyl)benzoic Acid]	–	–	–	–	< 0.1 µM	–	–	–	–	–	–
COc1ccc(Cc2sc3c(c2C(=O)N[C@@H](C)c2ccc(C(=O)O)cc2)CCOC3)cc1 [YJ128, (S)-4-(1-(2-(4-methoxybenzyl)-4,7-dihydro-5H-thieno[2,3-c]pyran-3-carboxamido)ethyl)benzoic Acid]	–	–	–	–	< 0.1 µM	–	–	–	–	–	–
Nc1ccn([C@@H]2O[C@H](CO)[C@@H](O)C2(F)F)c(=O)n1 [gemcitabine, reference compound]	–	–	–	–	–	–	–	0.0053 ± 0.0002 µM	0.0726 ± 0.0003 µM	0.0051 ± 0.0001 µM	0.016 ± 0.0001 µM

More lines, main results first:

IC50 [1]	IC50 [7]	IC50 [8]	IC50 [10]	IC50 [11]	Structure (SMILES)	IC50 at 72 h [2]	IC50 at 72 h [3]	IC50 at 72 h [4]	IC50 at 72 h [5]	IC50 at 72 h [6]	IC50 at 72 h [9]
> 10 µM	> 10 µM	0.1 to 1 µM	> 10 µM	–	C[C@H](NC(=O)c1c(C#Cc2ccc(F)cc2)sc2c1CCOC2)c1ccc(C(=O)O)cc1 [YJ101, (S)-4-(1-(2-((4-fluorophenyl)ethynyl)-5,7-dihydro-4H-thieno[2,3-c]pyran-3-carboxamido)ethyl)benzoic Acid]	> 100 µM	> 100 µM	> 100 µM	> 100 µM	> 100 µM	> 100 µM
–	–	–	–	0.1 to 1 µM	C[C@H](NC(=O)c1c(C#Cc2ccc(F)cc2)sc2c1CC(C)(C)OC2)c1ccc(C(=O)O)cc1 [YJ105, (S)-4-(1-(2-((4-fluorophenyl)ethynyl)-5,5-dimethyl-5,7-dihydro-4H-thieno[2,3-c]pyran-3-carboxamido)ethyl)benzoic Acid]	–	–	–	–	–	–
> 10 µM	> 10 µM	< 0.1 µM	> 10 µM	< 0.1 µM	C[C@H](NC(=O)c1c(CCc2ccc(F)cc2)sc2c1CCCC2)c1ccc(C(=O)O)cc1 [YJ108, (S)-4-(1-(2-(4-fluorophenethyl)-4,5,6,7-tetrahydrobenzo[b]thiophene-3-carboxamido)ethyl)benzoic Acid]	> 100 µM	> 100 µM	> 100 µM	> 100 µM	> 100 µM	> 100 µM
> 10 µM	> 10 µM	< 0.1 µM	> 10 µM	< 0.1 µM	C[C@H](NC(=O)c1c(CCc2ccc(F)cc2)sc2c1CC(C)(C)OC2)c1ccc(C(=O)O)cc1 [YJ110, (S)-4-(1-(2-(4-fluorophenethyl)-5,5-dimethyl-5,7-dihydro-4H-thieno[2,3-c]pyran-3-carboxamido)ethyl)benzoic Acid]	> 100 µM	> 100 µM	> 100 µM	> 100 µM	> 100 µM	> 100 µM
–	–	–	–	< 0.1 µM	C[C@H](NC(=O)c1c(Cc2cccc(F)c2)sc2c1CCOC2)c1ccc(C(=O)O)cc1 [YJ123, (S)-4-(1-(2-(3-fluorobenzyl)-4,7-dihydro-5H-thieno[2,3-c]pyran-3-carboxamido)ethyl)benzoic Acid]	–	–	–	–	–	–
–	–	–	–	< 0.1 µM	C[C@H](NC(=O)c1c(Cc2cccc(Cl)c2)sc2c1CCOC2)c1ccc(C(=O)O)cc1 [YJ126, (S)-4-(1-(2-(3-chlorobenzyl)-4,7-dihydro-5H-thieno[2,3-c]pyran-3-carboxamido)ethyl)benzoic Acid]	–	–	–	–	–	–
–	–	–	–	< 0.1 µM	C[C@H](NC(=O)c1c(Cc2ccc(F)c(F)c2)sc2c1CCOC2)c1ccc(C(=O)O)cc1 [YJ127, (S)-4-(1-(2-(3,4-difluorobenzyl)-4,7-dihydro-5H-thieno[2,3-c]pyran-3-carboxamido)ethyl)benzoic Acid]	–	–	–	–	–	–
–	–	0.1 to 1 µM	–	< 0.1 µM	O=C(NCC1CCC(C(=O)O)CC1)c1c(Cc2ccc(F)cc2)sc2c1CCOC2 (centres unmarked) [YJ130, 4-((2-(4-fluorobenzyl)-4,7-dihydro-5H-thieno[2,3-c]pyran-3-carboxamido)methyl)cyclohexane-1-carboxylic Acid]	–	–	–	–	–	–

— patent US20210139497A1, “THIENOCYCLIC COMPOUND AND SYNTHESIS METHOD THEREFOR AND APPLICATION THEREOF” (SHANGHAI YUYAO BIOTECH LTD., priority 2017, published 2021)
